By melting point is commonly meant the temperature, or range, at which the solid turns liquid. For the compound `O=S(=O)(Cl)c1sc(-c2ccccc2)nc1-c1ccccc1`, the melting point was in the range of 173 to 174 °C.
As for `CCCCCCCC=CC(=O)O`, the figure is 12 °C; as for `N#Cn1c(N)nc2ccccc21`, 175 to 177 °C; as for `O=CNC(c1ccccc1)C(O)c1ccccc1` (stereo not drawn), 205 °C.
The compound `COC(=O)c1ccc(C)c(Cl)c1` yielded a melting point of 29 °C.
In the case of `CCCCCCCCC(=O)OCCCCCCC` it was -15.5 °C; in that of `O=[N+]([O-])c1cc(Cl)c(Cl)cc1Nc1ccccn1`, 156 °C; in that of `CC(=O)NCC1CN(c2ccc(N3CCOCC3)c(F)c2)C(=O)O1` (stereo not drawn), 182 °C.
In the case of `CC(C)CC(=O)C1C(=O)c2ccccc2C1=O` it was 68.5 °C; in that of `O=C(O)COc1ccc2ccccc2c1`, 156 °C.
The compound `NNc1ccc(Cl)cc1[N+](=O)[O-]` had a melting point of 134 °C.
Turning to `CC(C)C(Nc1ccc(C(F)(F)F)cc1Cl)C(=O)OC(C#N)c1cccc(Oc2ccccc2)c1` (stereo not drawn), the melting point is 25 °C.
For `CC=Cc1cc2c(c(=O)o1)C(=O)C(O)C(C)O2` (stereo not drawn), the melting point amounted to 222 °C.
For `Cc1ccc(S(=O)(=O)OCC2COC(C)(C)O2)cc1` (stereo not drawn), the melting point lay in the range of 29 to 31 °C.
Consider `CCN(CCO)c1ccccc1`, for which the melting point came to 37 °C.
With `Nc1ccc2c(c1)CCC2=O`, the melting point fell in the range of 184 to 186 °C.
`O=C(Nc1ccccc1Cl)c1ccccc1` registered a melting point of 99 °C.
As for `COC(=O)c1cc(C)n(CO)n1`, the figure is 89 °C; as for `CC12CCC3C(CCC4CC(O)(C#CCl)CCC43C)C1CCC2O` (stereo not drawn), 120 °C; as for `COc1ccc2sc(C)nc2c1`, 36 °C.
In the case of `COC(=O)CCC(C)C1CCC2C3C(=O)CC4CCCCC4(C)C3CC(=O)C12C` (stereo not drawn) it was 140 °C; in that of `NC(=S)c1ccccn1`, 136 °C.
In the case of `CSc1nc2cc(N=Cc3ccc([N+](=O)[O-])cc3)ccc2[nH]1` it was 259 to 260 °C; in that of `CSCS(=O)(=O)c1ccc(C)cc1`, 79 °C.
Take `Nc1ccc(-c2ccccc2N)cc1`: the melting point was 54.5 °C.
As for `Cc1c[nH]c(C)n1`, the figure is 92 °C; as for `N#CCC(=O)OCc1ccccc1`, 28 °C; as for `Cc1c(Br)cccc1[N+](=O)[O-]`, 40 °C.
In turn, `COc1ccc(C=C2SC(=NN=CC(C)C)NC2=O)cc1` displayed a melting point of 258 to 260 °C.
As for `N#CSc1ccc([N+](=O)[O-])c(C(=O)O)c1`, the figure is 156 to 160 °C; as for `CCN(CC)C(=O)C1C=C2c3cccc4[nH]c(Br)c(c34)CC2N(C)C1` (stereo not drawn), 124 °C.
As for `Cc1ccc([N+](=O)[O-])cc1N=C=S`, the figure is 60 to 62 °C.
Compound `Fc1cc(F)c(F)c(-c2c(F)c(F)cc(F)c2F)c1F` yielded a melting point of 85 °C.
Regarding `OC1Cc2cccc(F)c21` (stereo not drawn), the melting point is 56 °C.
In the case of `NN1C(=O)c2ccccc2C1=O` it was 200 to 202 °C; in that of `Cc1cc(C#N)ccc1N`, 94 °C.
In the case of `Cc1nc(-c2ccccc2)cs1` it was 54 °C; in that of `c1ccc(-c2cccs2)cc1`, 34 to 36 °C.
In the case of `CCCCCCCCCCCCC(=O)OC` it was 6.5 °C; in that of `CC(C)(C)c1csc(N)n1`, 101 °C.
Turning to `C=C(C)C(=O)OCCOC(=O)c1cc([N+](=O)[O-])cc([N+](=O)[O-])c1`, the melting point came out at 71 °C.
Consider `CCOC(=O)C12C(c3ccccc3OP1(=O)OCC)C1(C(=O)OCC)C2c2ccccc2OP1(=O)OCC` (stereo not drawn), for which the melting point lay within 249 to 251 °C.
As for `O=C(Nc1c(Cl)cc(Cl)cc1Cl)C(C(F)(F)F)C(F)(F)F`, the melting point fell in the range of 218 to 220 °C.
For the compound `CCCC(N)P(=O)(O)O` (stereo not drawn), the melting point lay in the range of 276 to 281 °C.
Compound `BrC(=NNc1ccccc1)c1ccccc1` returned a melting point of 190 °C.
As for `COC(=O)c1scc(S(=O)(=O)C(C)C)c1S(=O)(=O)Cl`, the figure is 128 to 129 °C.
In the case of `O[C@@H]1CCCC/C=C\c2ccccc21` it was 97 °C; in that of `c1ccc(C2=NC(c3ccccc3)C(c3ccccc3)N2)cc1` (stereo not drawn), 134 °C.
As for `Cc1cc(C(=O)O)cc(Cl)c1N`, the figure is 274 to 277 °C; as for `CCOC(=O)c1ccc(CBr)cc1`, 30.5 °C; as for `N#CC(Br)c1ccccc1` (stereo not drawn), 29 °C.
Take `NC(=NO)c1ccc(C(F)(F)F)cc1`: the melting point lay within 125 to 128 °C.
In the case of `N#CCCN1CCCCC1` it was -6.8 °C.
`Cc1ccc(Cl)c(C(=O)O)c1` came in with a melting point of 148 to 150 °C.
As for `O=C(O)/C=C/c1c(F)cccc1F`, the figure is 124 to 125 °C; as for `CC(C)(C)C(=O)Cl`, -56 °C; as for `COC1C=CC23c4cc5c(cc4COC2(O)CN(C)C3C1)OCO5` (stereo not drawn), 210 °C.
Take `FC(F)(F)Sc1ccc(CBr)cc1`: the melting point was 55 °C.
In turn, `CSc1ccc(S)cc1` showed a melting point of 13 °C.
In the case of `NC(=O)c1ccc(Cl)cc1Cl` it was 192 °C.
In the case of `O=C(/C=C/C(=O)c1ccccc1)c1ccccc1` it was 110 to 111 °C.
As for `Cc1cccc(/N=N/c2c(N)nn3c(-c4ccccc4)cc(=O)[nH]c23)c1`, the figure is 296 °C; as for `COc1ccc2c3c1OC1C(O)CCC4C(C2)N(C)CCC341` (stereo not drawn), 200 °C.
In the case of `CCc1cc(CC)cc(CC)c1`, the melting point is -66.5 °C.
`O=S(=O)(Cl)c1ccc(-c2ccno2)s1` registered a melting point of 69 to 70 °C.
In the case of `O=C1N(c2ccccc2)C(=O)[C@]2(Cl)C=C(c3ccccc3)[C@]12Cl`, the melting point amounted to 152 °C.
In the case of `O=C1c2nonc2CCC1Br` (stereo not drawn) it was 65 to 68 °C.
As for `CC(C(=O)O)c1ccc(C2CCCC(=NO)C2)cc1` (stereo not drawn), the figure is 178 °C.
As for `Clc1cc(Cl)c(-c2c(Cl)cc(Cl)c(Cl)c2Cl)cc1Cl`, the figure is 83 °C.
Regarding `Nc1ccccc1SC(=O)c1ccccc1`, the melting point came to 105 °C.
In turn, `CCOC(=O)c1cn2nc(OP(=S)(OCC)OCC)cc2nc1C` yielded a melting point of 51 °C.
`c1ccc(Oc2nc(Oc3ccccc3)nc(Oc3ccccc3)n2)cc1` displayed a melting point of 234 °C.
In the case of `N#Cc1ccc(C#N)c(OC(F)(F)F)c1` it was 79 to 81 °C.
As to `N#CCCSCCC#N`, the melting point is 24 to 25 °C.
Turning to `COc1cc(N)c(C#N)cc1OC`, the melting point was 99 °C.
In the case of `COc1cc([N+](=O)[O-])ccc1C` it was 69 to 74 °C; in that of `Cn1nc(C(=O)O)cc1-c1cccs1`, 156 to 158 °C; in that of `O=[N+]([O-])c1ccccc1CCO`, 2 °C.
In the case of `CCc1ccc(O)c(OC)c1`, the melting point is 15 °C.
The compound `Nc1nc[nH]c(=O)n1` displayed a melting point of 300 °C.
Compound `NC(=O)c1ccccc1C(F)(F)F` showed a melting point of 163 °C.
In turn, `CCOC(=O)C1=C(N)Oc2ccc3ccccc3c2[C@H]1c1ccc(C)cc1` registered a melting point of 201 °C.
As for `COC(=O)C1(C(=O)OC)Cc2c(C)c(C)c(C)c(C)c2C(=O)O1`, the figure is 166 °C; as for `O=C(c1ccccc1)c1ccc(OCc2ccccc2)cc1`, 82 °C; as for `Cc1cc(N)on1`, 83 °C.
`O=C(O)c1cccc2cccc(C(=O)O)c12` gave a melting point of 260 °C.
In turn, `CCCCCCCCCCCCCCCCCCCCC(=O)O` returned a melting point of 74 to 76 °C.
In the case of `C=C1CCOC2(C(O)C(C)(O)CO)NC(=O)C1(O)NC2=O` (stereo not drawn) it was 188 °C.
As for `CC(C)(C)OC(=O)N[C@@H](CCCCN)C(=O)O`, the figure is 205 °C.
`O=C(ON=C(Cc1ccccc1)c1ccccc1)c1ccccc1` showed a melting point of 92 °C.
In the case of `CN(C)c1ccc(C2CC(=O)CC(=O)C2)cc1` it was 201 to 204 °C.
In turn, `CS(=O)(=O)c1ccccc1S(=O)(=O)Cl` showed a melting point of 133 to 138 °C.
On to `CC1(C)SC2C(NC(=O)C3(N)CCCCC3)C(=O)N2C1C(=O)O` (stereo not drawn), for which the melting point was 182 °C.
As for `CCCCCSC`, the melting point is -94 °C.
In the case of `Oc1ccc(Br)cn1` it was 180 °C; in that of `CC(C)[C@@H](C)CC[C@@H](C)[C@H]1CC[C@H]2C3=CC[C@H]4C[C@@H](O)CC[C@]4(C)[C@H]3CC[C@]12C`, 146 °C; in that of `O=C(O)c1cc(S(=O)(=O)F)ccc1Cl`, 148 to 151 °C.
As for `CCCCCCCCCCCCCCCCCCc1ccccc1`, the figure is 29 °C.
As for `COC(=O)c1cc(C)nc(Cl)n1`, the figure is 110 to 111 °C.
Consider `C[C@@H]1N[C@H](C(=O)O)CC2c3ccccc3NC21` (stereo partly drawn), for which the melting point came out at 286 °C.
As for `CN(C)c1ccccc1-c1ccccc1P(c1ccccc1)c1ccccc1`, the figure is 126 to 128 °C; as for `CC(=O)Nc1ccc(-c2csc(N)n2)cc1`, 250 °C; as for `O=C(O)C=Cc1ccc(Cl)cc1Cl`, 245 to 248 °C.
As for `O=C(O)c1cccnc1Oc1ccc2c(c1)OCO2`, the figure is 181 to 183 °C.
In turn, `N#C/C(=N\Nc1c(Cl)cc(Cl)cc1Cl)c1nc2ccccc2[nH]1` registered a melting point of 263 °C.
Take `CCOC(=O)c1c[nH]nc1C(F)(F)F`: the melting point lay within 145 to 148 °C.
In turn, `CCCCCCCCCCCCN1CCCCCC1=O` came in with a melting point of -7 °C.
As for `NNC(=O)c1cccc2cc[nH]c12`, the figure is 178 °C; as for `O=[N+]([O-])c1ccc(Cl)cc1CO`, 77 to 82 °C.
In the case of `COc1ccc(C(C)=CC(=O)O)c(OC)c1` it was 149 °C; in that of `CC(=Cc1ccc(F)cc1)[N+](=O)[O-]`, 64 to 67 °C; in that of `CC(=O)c1cccc(N=C=S)c1`, 26 to 28 °C.
As for `Cc1cc(C)cc(OCC2CNC(=O)O2)c1` (stereo not drawn), the figure is 122 °C.

Source of the values: a melting point compilation (Tetko et al.).
